Data on 58 compounds can be found in publication PMC12040169 (PLOS Biology, 2025).

One data set is described as follows: in vitro. The settings on record: human, hela cells, % viability.
As a reminder, the viability is a read-out of living cells in per cent, often relative to untreated cells. In the case of `COc1ccc2c(c1)CCCN2C(=O)CCn1ccc(C)n1` [CBK282217], the viability at 28.5 h, 10 µM is 104%. Same read-out and setting: for `O=C(Cn1cc(Br)ccc1=O)NC1CCCN(Cc2ccccc2)C1` (stereo not shown) [CBK305668] the value was 83.7%; for `CCN1CCN(c2ncnc3sc(C)c(C)c23)CC1` [CBK288101], 98.6%.

`CCN(C(=O)c1cn2c3c(cccc3c1=O)CC2)C1CCOC(C)(C)C1` (stereo not shown) [CBK307332]: the viability at 28.5 h, 10 µM came out at 90.1%.

For `COc1cccc(CNC(=O)c2cc3c(nc2N)CCN(Cc2cccc(C)c2OC)C3)c1` [CBK285682], the viability at 28.5 h, 10 µM worked out at 98.6%. Same read-out and setting: the figure for `CCN(C(=O)Cn1c(C)cc(=O)c2ccccc21)C1CCOC(C)(C)C1` (stereo not shown) [CBK306797] is 93.6%. Still for that read-out and setting: the figure for `Cc1nn(CC(=O)N(C(C)C)C(C)C)c(=O)c2cc3occc3n12` [CBK283655] is 98.4%; for `CN(C)CCNC(=O)Cc1csc(-c2ccc(Cl)cc2)n1` [CBK107299] it is 96.2%; for `COc1ccccc1-c1ncc(OCc2ccccn2)nc1N` [CBK145070] it is 109%. Regarding `O=C(O)/C=C\C(=O)N(C1CCCCC1)C1CCCCC1` [CBK286562], the viability at 28.5 h, 10 µM amounted to 92%. Same read-out and setting: for `CC(C)C(=O)N[C@H]1CC[C@]2(CC1)CNC(=O)c1ccccc1O2` [CBK281675] the value was 103%; for `Cc1nc(C2CCCN(C(=O)c3cccnc3)C2)c2sccn12` (stereo not shown) [CBK285233], 93%; for `CC1CCN(C(=O)C2C3CCC4(CC(=O)c5ccccc5O4)C32)CC1` (stereo not shown) [CBK284872], 98.7%. On the same count and under the same terms, for `COc1ccc(C2(C(=O)NCc3ccc(OC(F)(F)F)cc3)CC2)cc1` [CBK149823] the value was 117%; for `Cc1cc(S(=O)(=O)NCC(=O)OC(C)C)c(C)cc1Cl` [CBK044196], 101%; for `Cc1nc(CCN2CCN(c3ccc4nccn4n3)CC2)cs1` [CBK306932], 95.6%. On the same count and under the same terms, the figure for `CC(C)C(=O)N1CCN(c2ccccc2NC(=O)c2ccc(N3CCCCC3)c([N+](=O)[O-])c2)CC1` [CBK267609] is 100%; for `CC(=O)NCCNC(=O)c1cnc(-c2ccc(Cl)cc2)c(-c2ccc(O)cc2)c1` [CBK036647] it is 101%; for `c1cnc(N2CCN(CCN3CCOCC3)CC2)c(OCCN2CCOCC2)n1` [CBK082899] it is 105%. `CS(=O)(=O)Nc1nccnc1OC1CCN(CC2CCCCC2)CC1` [CBK084284]: the viability at 28.5 h, 10 µM turned out to be 89.9%. Still for that read-out and setting: the figure for `COc1cc(Nc2cc(-c3ccccc3N(C)C)ncn2)cc(OC)c1OC` [CBK090702] is 64.2%. As for `CCN1CCCN(c2ccnc(OCCN3CCOCC3)n2)CC1` [CBK083807], the viability at 28.5 h, 10 µM came out at 114%. The same measure, in the same setting: the figure for `O=C(NCc1ccccc1)c1ccc2[nH]nnc2c1` [CBK200368] is 86.9%; for `Cc1ccc(S(=O)(=O)c2cccc(S(N)(=O)=O)c2)cc1S(N)(=O)=O` [CBK264535] it is 91.7%; for `COc1cc(Nc2nc(-c3c(OC)cccc3OC)cn3ccnc23)cc(OC)c1OC` [CBK037395] it is 95.5%. As to `CCN(CC)CC(O)Cn1c(-c2ccccc2Cl)nc2ccccc21` (stereo not shown) [CBK262495], the viability at 28.5 h, 10 µM worked out at 96.3%. On the same count and under the same terms, the figure for `Oc1cc2cccnc2nc1-c1ccc(OCc2ccccc2)c(F)c1` [CBK073708] is 91.2%. Regarding `Cc1ccsc1C(=O)N1CCC(n2cc(C(C)(C)O)nn2)CC1` [CBK307069], the viability at 28.5 h, 10 µM worked out at 110%. Same read-out and setting: the figure for `CN1CCN(CCCOc2ccc(OCc3ccccc3)cc2)CC1` [CBK265077] is 98.2%; for `O=C(O)CNCc1ccc(-c2ccc(Cl)cc2)o1` [CBK287258] it is 102%; for `N#Cc1ccc(CNC(=O)c2ccc3[nH]ccc3c2)cc1` [CBK149078] it is 87.8%. Consider `c1cc(CNc2nccnc2-c2ccsc2)ccn1` [CBK037513], for which the viability at 28.5 h, 10 µM came out at 103%. The same measure, in the same setting: the figure for `Nc1ccc(-c2ccccc2)c2ccccc12` [CBK084312] is 97.1%. Still for that read-out and setting: the figure for `COc1c(O)ccc(/C=N/NC(=O)c2cccnc2)c1[N+](=O)[O-]` [CBK262197] is 112%. On to `Cc1nc(N)sc1-c1nnc(Nc2ccccc2)s1` [CBK267353], for which the viability at 28.5 h, 10 µM turned out to be 82.7%. As to `CC(=O)Nc1ccc(NC(=O)C2C3CCC(C3)C2C(=O)O)cc1` (stereo not shown) [CBK263534], the viability at 28.5 h, 10 µM turned out to be 93.9%. Take `CC1CCCCN1Cc1nc2c(c(=O)n(C)c(=O)n2C)n1CCCc1ccccc1` (stereo not shown) [CBK269326]: the viability at 28.5 h, 10 µM was determined as 97%. The same measure, in the same setting: for `CN1CCC[C@H]1C(=O)N1CCN(c2ncccn2)CC1` [CBK144528] the value was 93.4%; for `COc1ccc([C@@]23CC[C@@H](NC(=O)Nc4cc(C)ccc4F)C[C@@H]2N(C)CC3)cc1OC` [CBK036509T], 102%; for `CC(C)(C)OC(=O)N1CCC(CNS(=O)(=O)c2cccc3cccnc23)CC1` [CBK086017], 97.1%.

As for `COc1ccccc1CN(Cc1cccnc1)C(=O)c1cnc(C)cn1` [CBK306972], the viability at 28.5 h, 10 µM was determined as 95.1%. For `COCC(=O)N1CCc2cc(-c3cn4ccccc4n3)ccc21` [CBK285274], the viability at 28.5 h, 10 µM was determined as 81.9%. The same measure, in the same setting: for `Nc1ccc(-c2cn3ccnc3c(Nc3ccc(Cl)cc3)n2)cc1` [CBK066453] the value was 87%; for `CC(C)c1ccc(NC(=O)CSc2n[nH]c(=O)n2-c2ccccc2)cc1` [CBK299826], 89.3%. Turning to `CC(C)Nc1nc2ccccc2nc1SCCOc1ccccc1` [CBK103668], the viability at 28.5 h, 10 µM stood at 89.8%. Still for that read-out and setting: for `O=C(c1ccc2cc[nH]c2c1)N1CCN(CC2CCOC2)CC1` (stereo not shown) [CBK305541] the value was 99.2%. The same measure, in the same setting: the figure for `COc1ccccc1C(=O)N1CCC[C@@H](N)[C@@H]1c1ccccc1F` [CBK283458] is 86%. The same measure, in the same setting: the figure for `c1coc(CNc2cncc(-c3ccc4c(c3)OCO4)n2)c1` [CBK065930] is 101%; for `CN(C(=O)c1c[nH]nc1C1CCCN(Cc2cc3ccccc3o2)C1)C1CCCCC1` (stereo not shown) [CBK286492] it is 102%; for `COCCCn1c(CCC(=O)O)ccc1-c1ccc(Br)cc1` [CBK268015] it is 97.6%. Take `O=C(c1nccs1)C1CCN(C(=O)Cc2cccc(F)c2)CC1` [CBK284208]: the viability at 28.5 h, 10 µM is 94.6%. On the same count and under the same terms, for `Cc1ccc(-n2c(SCC(=O)Nc3ccc(C)c([N+](=O)[O-])c3)nnc2-c2ccccc2O)c(C)c1` [CBK268769] the value was 96.6%; for `OCCN(CCO)c1nc(-c2ccccc2)nc2sc(-c3ccccc3)cc12` [CBK265935], 105%. As for `Cc1ccc(C(=O)N2CCN(CC(=O)N3CCCC3)CC2)cc1` [CBK039096], the viability at 28.5 h, 10 µM turned out to be 110%. Still for that read-out and setting: the figure for `Cc1ccccc1N1CCC(CNC(=O)CCn2nc(C)c(C)c2C)C1` (stereo not shown) [CBK307465] is 87.7%; for `COc1ccc(CCCC(=O)Nc2cc3ccccc3c(N3CCNCC3)n2)cc1OC` [CBK028417T] it is 90.3%.

For `COc1ccc(CNC(=O)C2CCCN(S(=O)(=O)c3cccs3)C2)cc1` (stereo not shown) [CBK304628], the viability at 28.5 h, 10 µM was determined as 95.8%.

The same data set, now with this note: human, hela cells, % viability, bulk resorufin, single well.
Regarding `O=C(O)COc1c(Cl)cc(C=C2C(=O)NC(=O)NC2=O)cc1Cl` [CBK263377], the viability at 28.5 h, 10 µM is 83%.
